US20020032220A1, “Formulations comprising dissolved paroxetine” (SmithKline Beecham plc, priority 1997, published 2002)
Structures can show the parent of a compound that is named as a salt.

Assay: Solubility testing of paroxetine hydrochloride in liquid carriers/solvents
Assay type: physicochemical
Description: Since solid paroxetine forms are in general only sparingly soluble in common solvents, the solvents which are acceptable for use in capsules and for administration to patients need to be subjected to routine solubility testing to confirm that they can maintain an appropriate concentration of paroxetine. In addition, higher loadings of a paroxetine form in a suitable solvent may be achieved by using conventional physical techniques such as heating, shaking and sonication. Alternatively good solvents for paroxetine may be used in small amounts as cosolvents to solubilize paroxetine in liquids that are acceptable for capsule use but in which paroxetine is poorly soluble. Solubilising agents such as the polysorbates, the poloxamers, cyclodextrins, ionic and non-ionic surface active agents, for example Pluronic F60 and Sorbitan esters may also be used to enhance the solubility of paroxetine hydrochloride in solvents acceptable for capsule use but in which paroxetine is poorly soluble.
The term “oral swallow capsule” most suitably denotes a capsule having a maximum volume of 0.86 ml. Preferred capsules according to the present invention have a maximum volume of about 0.45 ml and more especially may lie in the range 0.2 to 0.4 ml, although capsules as small as 0.14 ml are also provided by the invention. […]

| solubility (oil or lipid, in plant oils (Sunflower, Safflower, Peanut, Soybean, Cottonseed, Corn, Castor, Apricot seed, Olive, Wheat germ, Sesame, Evening Primrose, Canola), Mineral oil, liquid paraffin, Miglyol 810/812, Oleic acid, Ethyl Oleate, Span 80/85, Labrafac lipophile, Plurol Oleique, Peceol) [µg/mL] | solubility (in words) (in Propylene Carbonate, Triacetin, Glycerol, Lauroglycol, Propylene glycol, PEG 300, Glycofurol, PEG 400, IPA, Span 20, Transcutol, Labrasol, Labrafil, Olepal, Glyceryl Linoleate (Maisine 35-1), Pharmasolve) | Compound |
| --- | --- | --- |
| < 10000 | – | Fc1ccc([C@@H]2CCNC[C@H]2COc2ccc3c(c2)OCO3)cc1 [paroxetine hydrochloride] |
| – | useful solubility | Fc1ccc([C@@H]2CCNC[C@H]2COc2ccc3c(c2)OCO3)cc1 [paroxetine, (−)trans isomer of 4-(4′-fluorophenyl)-3-(3′,4′-methylenedioxy-phenoxymethyl)-piperidine] |
